How the values were obtained:
[1] = tested on: cofilin-1 in epithelial cells; conditions: micromolar concentrations, ref Zhang et al., 2018; cited from earlier work
Experimental: (Figures 11, 12) CCK-8 stimulates pancreatic growth in addition to being a physiological regulator of pancreatic enzyme secretion ([Jensen, 1994]; [Dufresne et al., 2006]) The activation of p44/42 MAPK by CCK-8 is an important signaling step in mediating its growth effects ([Dufresne et al., 2006]). Therefore, to study the possible role of cofilin in the activation of p44/42 MAPK in pancreatic acini, we examined the effect on cofilin activation of preincubation with two cofilin inhibitors (Cytochalasin D, Paclitaxel). (Figure 11) ([Shoji et al., 2012]; [Zhang et al., 2018]). The concentrations ...

[2] = tested on: cofilin (pS3) in CCK1-R/Panc-1 cells; assay: cofilin activation (pS3 cofilin Western blot) in CCK1-R/Panc-1 cells; type: cell-based, human; conditions: CCK-8 0.3 and 100 nM, 5 min
Experimental: CCK1 receptor transfected Panc-1 (CCK1-R/Panc-1) cells ([Berna et al., 2009]) and AR42J cells, were cultured in DMEM supplemented with 10% FBS and 1% penicillin/streptomycin and in RPMI supplemented with 10% FBS and 1% penicillin/streptomycin, respectively; and split 1:10 weekly with trypsin/EDTA, after washing in PBS. Finally, cells were seeded in 6-well plate and serum starved overnight, until they were 80% confluent. Cells were incubated at 37°C in 5% CO2/95% air. AR42J cells were treated with 100 nM dexamethasone for 72°h, which stimulates their differentiation into exocrine cells ([Logsdon, 1986]).
Pancreatic acini preparations were obtained by collagenase digestion as previously described ([Bissonnette et al., 1984]; [Sato et al., 1989]; [Ramos-Alvarez and Jensen, 2018]). […] Isolated acini and CCK1-R/Panc-1 cells (M&M 2.2.1) were also preincubated with two SSH1 inhibitors, D3 (25 μM, 1 h) ([Li et al., 2015]) or SE (50 μM, 3 h for acini; 24 h for CCK1-R/Panc-1 cells) ([Lee et al., 2017]). […] After sonication, lysates were centrifuged at 10,000×g for 15 min at 4°C and protein concentration was measured using the Bio-Rad protein assay reagent. […]
Western blotting and immunoprecipitation were performed as described previously ([Ramos-Alvarez and Jensen, 2018]). […] The intensity of the protein bands was measured using GeneTools software from Syngene, which were assessed in the linear detection range. […]
FIGURE 3 Effect of two SSH1 inhibitors, D3 and SE (A–C), or SSH1 siRNA (D), on the ability of CCK-8 (0.3 and 100 nM) to activate LIMK and cofilin in pancreatic acini (A/B) and activate cofilin in CCK1-R/Panc-1 cells (C/D). […] Western blots were analyzed using anti-pS3 cofilin and anti-pT508 […], and the knockdown effect of SSH1 was confirmed by Western blots using SSH1 (C-term) antibody. Bands were visualized using chemiluminescence and quantified by densitometry. […] Results are expressed as % of basal stimulation of the control group. *, p < 0.05 compared to the control group; ∞, p < 0.05 compared to stimulants without inhibitors. […]

[3] = tested on: cofilin / PP1 association; assay: co-immunoprecipitation of cofilin with PP1 in pancreatic acini; type: cell-based, rat; conditions: CCK-8 100 nM, 3 min
Experimental: For co-immunoprecipitation, 600 μg of protein was incubated with 15 μL of the anti-cofilin antibody (Santa Cruz Biotechnology, Inc. Dallas, TX) and 25 μL of protein A/G agarose beads (Thermo-Fisher Scientific. Waltham, MA) overnight at 4°C under agitation. Samples were washed three times with lysis buffer, re-suspended in 12.5 μL of Sample Buffer, Laemlii 2x concentrate and boiled for 5 min before western blotting.
FIGURE 6 Effect of CCK-8 (100 nM) to alter co-immunoprecipitation of cofilin with total PP2A (A) or PP1 (B). Isolated pancreatic acini were incubated in the absence or presence of CCK-8 (100 nM) for 3 min and then lysed. Equal amounts of protein were co-immunoprecipitated with an anti-cofilin (Santa Cruz, SC-376476) and then subjected to Western blots using anti-PP2A and anti-PP1. Bands were visualized using chemiluminescence and quantified by densitometry. Top: Results of a representative blot of four independent experiments are shown. Bottom: Means ± S.E. of at least 4 independent experiments. Results are expressed as % of basal stimulation of the control group. N.S., No significant. […] Lysates were analyzed using cofilin (pS3), Total cofilin, PP2A (pY307), Total PP2A, PP1(pT320), Total PP1 and tubulin. […]

Row | Compound | effect on cofilin-1 expression levels [1] | effect on cofilin phosphorylation in CCK1-R/Panc-1 cells [2] | effect on PP1 co-immunoprecipitation with cofilin [3]
1 | CC(=O)O[C@H]1C(=O)[C@@]2(C)[C@H]([C@H](OC(=O)c3ccccc3)[C@]3(O)C[C@H](OC(=O)[C@H](O)[C@@H](NC(=O)c4ccccc4)c4ccccc4)C(C)=C1C3(C)C)[C@]1(OC(C)=O)CO[C@@H]1C[C@@H]2O [Paclitaxel] | significantly suppressed cofilin-1 expression levels | – | –
2 | COOH-terminal octapeptide of cholecystokinin [CCK-8] | – | caused rapidly dephosphorylation of cofilin | had no effect

— paper PMC10149936, “Cofilin activation in pancreatic acinar cells plays a pivotal convergent role for mediating CCK-stimulated enzyme secretion and growth” (Frontiers in Physiology, 2023)
